{"source": "patent US7750039B2", "about": "“Indoles are cannabinoid receptor ligands” (priority 2004, dated 2010)", "origin": "cited, not measured here", "key": {"[1]": {"test_system": "CB1 receptor-mediated CNS side effects", "settings": "at fully efficacious doses"}, "animal models of pain": {"test_system": "animal models of pain", "settings": "acute thermal pain, persistent pain, inflammatory pain, neuropathic pain"}, "rodent models of pain": {"test_system": "rodent models of pain", "settings": "neuropathic, incisional, chronic and acute inflammatory pain"}, "[2]": {"test_system": "rat formalin model of persistent pain"}, "microglial": {"test_system": "microglial", "settings": "in vitro; blocked by SR144528"}, "[3]": {"test_system": "apolipoprotein E knockout mice", "settings": "low doses, inhibited by SR144528"}, "[4]": {"test_system": "CB1 receptor knockout mice"}, "[5]": {"test_system": "CB2 receptor knockout mice"}, "[6]": {"test_system": "ovariectomy-induced bone loss in mice", "settings": "model for post-menopausal osteoporosis"}}}
{"compound": "CN1CCCCC1Cn1cc(C(=O)c2cc([N+](=O)[O-])ccc2I)c2ccccc21", "note": "(centres unmarked) [AM-1241]", "values": [{"measurement": "CB1 receptor-mediated CNS side effects", "setting": "[1]", "value": "devoid of typical CB1 receptor-mediated CNS side effects"}, {"measurement": "analgesic efficacy", "setting": "animal models of pain", "value": "robust analgesic efficacy"}]}
{"compound": "COc1ccc2c(c1)c(CCN1CCOCC1)c(C)n2C(=O)c1cccc(Cl)c1Cl", "note": "[GW405833]", "values": [{"measurement": "CB1 receptor-mediated CNS side effects", "setting": "[1]", "value": "devoid of typical CB1 receptor-mediated CNS side effects"}, {"measurement": "efficacy in pain models", "setting": "rodent models of pain", "value": "efficacious"}]}
{"compound": "CCCCCCC(C)(C)c1cc(OC)c([C@@H]2C=C(CO)[C@@H]3C[C@H]2C3(C)C)c(OC)c1", "note": "[HU-308]", "values": [{"measurement": "antinociceptive response", "setting": "[2]", "value": "elicits an antinociceptive response"}]}
{"compound": "CCCC(C)(C)c1ccc2c(c1)OC(C)(C)[C@@H]1CC=C(C)C[C@@H]21", "note": "[JWH-133]", "values": [{"measurement": "β-amyloid-induced microglial activation and neurotoxicity", "setting": "microglial", "value": "abrogated"}]}
{"compound": "(−)-Δ^9-Tetrahydrocannabinol [Δ^9-THC]", "values": [{"measurement": "progression of atherosclerotic lesions", "setting": "[3]", "value": "slowed the progression of atherosclerotic lesions"}, {"measurement": "analgesic efficacy", "setting": "[4]", "value": "retains some analgesic efficacy"}, {"measurement": "immunosuppressive effects", "setting": "[5]", "value": "absent"}]}
{"compound": "SR144528", "values": [{"measurement": "osteoclast activity", "setting": "osteoclast", "value": "inhibit osteoclast activity"}, {"measurement": "ovariectomy-induced bone loss", "setting": "[6]", "value": "reverse ovariectomy-induced bone loss"}]}
